Substitutions are numbered along the chain they refer to. Where two headings read alike, the source gives them in different places. Where a SMILES comes first, the peptide text is derived from it. [ ]: non-standard residue; d: D form. Aib = CC(C)(N)C(=O)O

We go through three compounds from PMC8881610 (Nature Communications, 2022).

Holding throughout (assay type): cell-based
One assay has as its target GCGR (Homo sapiens, UniProt P47871). Nature of the assay: cAMP accumulation assay, GCGR WT, mutant or modified constructs. More on the design: V5 (C); 6×His (C); expressed in transfected cells; host or cells: HEK293T. Conditions: for EC50 / Emax: HEK293T; for Emax: HEK-293T. The protocol: Human embryonic kidney 293 cells containing SV40 large T-antigen (HEK293T) were cultured in DMEM (Gibco) supplemented with 10% (v/v) fetal bovine serum (FBS, Gibco), 1 mM sodium pyruvate (Gibco) and 100 units/mL penicillin and 100 μg/mL streptomycin at 37 °C in 5% CO2. Chinese hamster ovary (CHO-K1) cells were cultured in F-12 (Gibco) containing 10% FBS, 100 units/mL penicillin and 100 μg/mL streptomycin at 37 °C in 5% CO2. For cAMP and receptor expression assays, HEK293T cells were seeded into 6-well cell culture plates at a density of 7 × 10^5 cells per well. After overnight incubation, cells were transfected with GIPR, GLP-1R or GCGR construct using Lipofectamine 2000 or Lipofectamine 3000 transfection reagent (Invitrogen). For whole-cell binding assay, CHO-K1 cells were seeded into 96-well fibronectin-treated cell culture plates at a density of 3 × 10^4 cells per well. After overnight incubation, cells were transfected with GIPR, GLP-1R or GCGR construct using Lipofectamine 2000 transfection reagent (Invitrogen). Following 24 h culturing, the transfected cells were ready for use. […]
(§1) For GIPR, GLP-1R and GCGR, multi-targeting agonist stimulated cAMP accumulation was measured by a LANCE Ultra cAMP kit (PerkinElmer). After 24 h culture, the transfected cells were seeded into 384-well microtiter plates at a density of 3,000 cells per well in HBSS supplemented with 5 mM HEPES, 0.1% (w/v) BSA or 0.1% (w/v) casein and 0.5 mM 3-isobutyl-1-methylxanthine. The cells were stimulated with different concentrations of peptide agonists for 40 min at RT. Eu-cAMP tracer and ULight^TM-anti-cAMP were then diluted by cAMP detection buffer and added to the plates separately to terminate the reaction. Plates were incubated at RT for 1 h and the fluorescence intensity measured at 620 nm and […] by an EnVision multilabel plate reader (PerkinElmer).

In assay [1] the target is T1, GIPR (Homo sapiens, UniProt P48546, T345F).
T1 sequence (P48546 22-466 T345F): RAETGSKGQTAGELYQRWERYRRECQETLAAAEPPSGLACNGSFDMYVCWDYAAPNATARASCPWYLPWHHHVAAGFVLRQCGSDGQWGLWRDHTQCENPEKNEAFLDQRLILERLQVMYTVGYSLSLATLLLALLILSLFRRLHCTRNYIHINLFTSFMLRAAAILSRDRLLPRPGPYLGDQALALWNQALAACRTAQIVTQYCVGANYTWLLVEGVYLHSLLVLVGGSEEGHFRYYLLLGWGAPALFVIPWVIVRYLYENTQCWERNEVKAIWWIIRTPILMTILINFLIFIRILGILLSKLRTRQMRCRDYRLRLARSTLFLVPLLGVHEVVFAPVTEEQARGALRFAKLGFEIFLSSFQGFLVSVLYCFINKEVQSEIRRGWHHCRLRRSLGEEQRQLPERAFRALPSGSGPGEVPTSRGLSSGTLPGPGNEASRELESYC
The assay is described as follows: cAMP accumulation assay (LANCE Ultra cAMP kit), GIPR WT, mutant or modified constructs. More on the design: acylated tirzepatide to the full-length or modified; Flag; expressed in transfected cells; host or cells: HEK293T. The following applies: GIPR T345F, HEK293T; for EC50: read-out: cAMP pEC50 (converted). Here is the method:
(§2) Human embryonic kidney 293 cells containing SV40 large T-antigen (HEK293T) were cultured in DMEM (Gibco) supplemented with 10% (v/v) fetal bovine serum (FBS, Gibco), 1 mM sodium pyruvate (Gibco) and 100 units/mL penicillin and 100 μg/mL streptomycin at 37 °C in 5% CO2. Chinese hamster ovary (CHO-K1) cells were cultured in F-12 (Gibco) containing 10% FBS, 100 units/mL penicillin and 100 μg/mL streptomycin at 37 °C in 5% CO2. For cAMP and receptor expression assays, HEK293T cells were seeded into 6-well cell culture plates at a density of 7 × 10^5 cells per well. After overnight incubation, cells were transfected with GIPR, GLP-1R or GCGR construct using Lipofectamine 2000 or Lipofectamine 3000 transfection reagent (Invitrogen). For whole-cell binding assay, CHO-K1 cells were seeded into 96-well fibronectin-treated cell culture plates at a density of 3 × 10^4 cells per well. After overnight incubation, cells were transfected with GIPR, GLP-1R or GCGR construct using Lipofectamine 2000 transfection reagent (Invitrogen). Following 24 h culturing, the transfected cells were ready for use.
(§3) A BRIL fusion protein was added at the N-terminal of the ECD with a TEV protease site and 2GSA linker between them. C-terminal 45 amino acids (Q422-C466) of the receptor were truncated. LgBiT was added at the end of helix 8 with a 15-amino acid (15AA) polypeptide linker in between, followed by a TEV protease cleavage site and an OMBP-MBP tag. […] The construct and various mutants of human GIPR were cloned into pcDNA3.1 vector for cAMP accumulation and whole-cell binding assays.
as §1

Assay [2] deals with T2, GIPR (Homo sapiens, UniProt P48546, Y36A).
T2 sequence (P48546 22-466 Y36A): T1 sequence (P48546 22-466 T345F) with Y15A, F324T
The assay is described as above. Conditions: GIPR Y36A, HEK293T; for EC50: read-out: cAMP pEC50 (converted). Details: acylated tirzepatide to the full-length or modified; Flag; expressed in transfected cells; host or cells: HEK293T. The protocol: as §2, §3, §1

Where [3] appears, read: GCGR WT, 0.1% BSA, read-out: cAMP accumulation Emax.
[4] abbreviates: GCGR WT, 0.1% casein, read-out: cAMP accumulation Emax.

Chain of GCGR (P47871 26-477): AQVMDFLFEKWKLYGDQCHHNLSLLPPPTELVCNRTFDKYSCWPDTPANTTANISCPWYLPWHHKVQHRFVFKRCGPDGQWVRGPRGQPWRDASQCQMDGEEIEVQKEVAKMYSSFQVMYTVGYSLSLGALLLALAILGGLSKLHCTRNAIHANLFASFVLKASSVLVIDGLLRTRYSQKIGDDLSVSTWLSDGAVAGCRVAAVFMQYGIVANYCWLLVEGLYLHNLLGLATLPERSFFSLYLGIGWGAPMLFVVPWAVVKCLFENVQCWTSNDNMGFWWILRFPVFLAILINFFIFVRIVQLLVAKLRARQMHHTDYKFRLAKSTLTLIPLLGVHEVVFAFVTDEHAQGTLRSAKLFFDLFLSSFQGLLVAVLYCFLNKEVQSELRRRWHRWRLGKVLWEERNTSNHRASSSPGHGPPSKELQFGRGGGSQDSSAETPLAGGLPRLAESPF

On to `CC(C)C[C@H](NC(=O)[C@H](CC(C)C)NC(=O)[C@H](Cc1c[nH]c2ccccc12)NC(=O)[C@H](CCC(N)=O)NC(=O)[C@@H](NC(=O)[C@H](Cc1ccccc1)NC(=O)[C@H](CC(=O)O)NC(=O)[C@H](CCC(N)=O)NC(=O)[C@H](C)NC(=O)[C@H](C)NC(=O)[C@H](CCCNC(=N)N)NC(=O)[C@H](CCC(=O)O)NC(=O)[C@H](CC(=O)O)NC(=O)[C@H](CC(C)C)NC(=O)[C@H](Cc1ccc(O)cc1)NC(=O)[C@H](CCCCN)NC(=O)[C@H](CO)NC(=O)[C@H](CCCCN)NC(=O)[C@H](CC(=O)O)NC(=O)[C@H](CO)NC(=O)[C@@H](NC(=O)[C@H](Cc1ccccc1)NC(=O)[C@@H](NC(=O)CNC(=O)[C@H](CCC(N)=O)NC(=O)C(C)(C)NC(=O)[C@@H](N)Cc1c[nH]cn1)[C@@H](C)O)[C@@H](C)O)C(C)C)C(=O)N[C@@H](CC(=O)O)C(=O)NCC(=O)NCC(=O)N1CCC[C@H]1C(=O)N[C@@H](CO)C(=O)N[C@@H](CO)C(=O)NCC(=O)N[C@@H](C)C(=O)N1CCC[C@H]1C(=O)N1CCC[C@H]1C(=O)N1CCC[C@H]1C(=O)N[C@@H](CO)C(N)=O` [Non-lipidated peptide 20] (H-H[Aib]QGTFTSDKSKYLDERAAQDFVQWLLDGGPSSGAPPPS-NH2; N-terminus and C-terminus assumed), for which the EC50 on GCGR (GCGR WT, 0.1% BSA, read-out: cAMP accumulation pEC50 (converted)) was 1.95 nM. Also, the “reduction of cAMP accumulation vs peptide 20” value at GCGR (GCGR, 0.1% BSA) stood at 759 fold. On GCGR (GCGR, 0.1% casein), the “EC50 for cAMP accumulation relative to peptide 20” value is reported as −1,514 fold. Further, the values for the Emax at GCGR (setting [3]) and on GCGR (setting [4]) were 105 ± 2.16% and 103 ± 1.98%, respectively.
Consider `CCCCCCCCCCCCCCCC(=O)N[C@@H](CCC(=O)NCCCC[C@H](NC(=O)[C@H](CC(=O)O)NC(=O)[C@H](CO)NC(=O)[C@@H](NC(=O)[C@H](Cc1ccccc1)NC(=O)[C@@H](NC(=O)CNC(=O)[C@H](CCC(N)=O)NC(=O)C(C)(C)NC(=O)[C@@H](N)Cc1c[nH]cn1)[C@@H](C)O)[C@@H](C)O)C(=O)N[C@@H](CO)C(=O)N[C@@H](CCCCN)C(=O)N[C@@H](Cc1ccc(O)cc1)C(=O)N[C@@H](CC(C)C)C(=O)N[C@@H](CC(=O)O)C(=O)N[C@@H](CCC(=O)O)C(=O)N[C@@H](CCCNC(=N)N)C(=O)N[C@@H](C)C(=O)N[C@@H](C)C(=O)N[C@@H](CCC(N)=O)C(=O)N[C@@H](CC(=O)O)C(=O)N[C@@H](Cc1ccccc1)C(=O)N[C@H](C(=O)N[C@@H](CCC(N)=O)C(=O)N[C@@H](Cc1c[nH]c2ccccc12)C(=O)N[C@@H](CC(C)C)C(=O)N[C@@H](CC(C)C)C(=O)N[C@@H](CC(=O)O)C(=O)NCC(=O)NCC(=O)N1CCC[C@H]1C(=O)N[C@@H](CO)C(=O)N[C@@H](CO)C(=O)NCC(=O)N[C@@H](C)C(=O)N1CCC[C@H]1C(=O)N1CCC[C@H]1C(=O)N1CCC[C@H]1C(=O)N[C@@H](CO)C(N)=O)C(C)C)C(=O)O` [Peptide 20], for which the EC50 was 0.00562 nM on GCGR (GCGR WT, read-out: cAMP pEC50 (converted)); 0.00263 nM at GCGR (GCGR, n = 4, SEM, read-out: cAMP pEC50 ± S.E.M. (converted)); 0.00794 nM at GIPR [1]; 0.0123 nM at GIPR [2]. The Emax on GCGR (setting [3]) came to 101 ± 1.36%; on GCGR (setting [4]), 100.2 ± 0.86%; at GCGR (GCGR WT, read-out: cAMP Emax) it was 99.3 ± 1.73%; at GCGR (GCGR, n = 4, SEM, read-out: cAMP Emax ± S.E.M.), 101 ± 1.68%; at GIPR [1] (HEK-293T) it was 99.6 ± 2.09%; on GIPR [2] (HEK-293T), 100 ± 1.62%.
`CC[C@H](C)[C@H](NC(=O)[C@H](CC(C)C)NC(=O)[C@H](Cc1c[nH]c2ccccc12)NC(=O)[C@H](CCC(N)=O)NC(=O)[C@@H](NC(=O)[C@H](Cc1ccccc1)NC(=O)[C@H](C)NC(=O)[C@H](CCCCNC(=O)COCCOCCNC(=O)COCCOCCNC(=O)CC[C@H](NC(=O)CCCCCCCCCCCCCCCCCCC(=O)O)C(=O)O)NC(=O)[C@H](CCC(N)=O)NC(=O)[C@H](C)NC(=O)[C@@H](NC(=O)[C@H](CCCCN)NC(=O)[C@H](CC(=O)O)NC(=O)[C@H](CC(C)C)NC(=O)C(C)(C)NC(=O)[C@@H](NC(=O)[C@H](CO)NC(=O)[C@H](Cc1ccc(O)cc1)NC(=O)[C@H](CC(=O)O)NC(=O)[C@H](CO)NC(=O)[C@@H](NC(=O)[C@H](Cc1ccccc1)NC(=O)[C@@H](NC(=O)CNC(=O)[C@H](CCC(=O)O)NC(=O)C(C)(C)NC(=O)[C@@H](N)Cc1ccc(O)cc1)[C@@H](C)O)[C@@H](C)O)[C@@H](C)CC)[C@@H](C)CC)C(C)C)C(=O)N[C@@H](C)C(=O)NCC(=O)NCC(=O)N1CCC[C@H]1C(=O)N[C@@H](CO)C(=O)N[C@@H](CO)C(=O)NCC(=O)N[C@@H](C)C(=O)N1CCC[C@H]1C(=O)N1CCC[C@H]1C(=O)N1CCC[C@H]1C(=O)N[C@@H](CO)C(N)=O` [Tirzepatide]: the EC50 at GIPR [1] is 0.0141 nM; on GIPR [2] it was 0.0589 nM.
